Values quoted from earlier work as cited in patent publication US11198731B2 (Exelixis, Inc., priority 2017, dated 2021).
Like-named read-outs stand apart in the source and are kept apart here.

How the values were obtained:
[1] = test system: platinum-pretreated NSCLC; conditions: cited from earlier work; for OS hazard ratio: vs docetaxel
[2] = test system: NSCLC without EGFR genetic alterations; conditions: cited from earlier work
[3] = test system: advanced RCC after prior VEGFR-TKI; conditions: cited from earlier work
[4] = test system: advanced CRPC with bone metastases; conditions: cited from earlier work
[5] = test system: previously-untreated advanced RCC of intermediate- or poor-risk; conditions: cited from earlier work
[6] = test system: locally advanced or metastatic UC; conditions: cited from earlier work
[7] = test system: locally advanced or metastatic UC; conditions: cited from earlier work; remark: listed apart in the source
cisplatin-ineligible UC = conditions: cited from earlier work
advanced NSCLC = conditions: cited from earlier work
[8] = test system: advanced RCC of clear cell or non-clear cell histology; conditions: cited from earlier work
[9] = PD-L1 positive population (2 1% PD-L1 expression)
[10] = subjects with ≥5% PD-L1 expression

## CC(=O)O[C@@]12CO[C@@H]1C[C@H](O)[C@@]1(C)C(=O)[C@H](O)C3=C(C)[C@@H](OC(=O)[C@H](O)[C@@H](NC(=O)OC(C)(C)C)c4ccccc4)C[C@@](O)([C@@H](OC(=O)c4ccccc4)[C@H]21)C3(C)C [docetaxel]
[1]; ITT population
  Median OS: 9.6 months
  ORR: 13%
[1]; [9]
  Median OS: 10.3 months
[1]
  Treatment-related Grade 3 or 4 AEs: 43%
[1]; in vivo
  Median DOR: 6.2 months
  Subjects who discontinued treatment due to AE: 19%

## C#Cc1cccc(Nc2ncnc3cc(OCCOC)c(OCCOC)cc23)c1 [erlotinib, reference compound]
[2]; % of subjects
  Progression as best response: 66%
[2]; in vivo
  Estimated median OS: 5.1 months
  ORR: 3%
[2]; second or third line treatment
  PFS: 1.8 months

## CO[C@H]1C[C@@H]2CC[C@@H](C)[C@@](O)(O2)C(=O)C(=O)N2CCCC[C@H]2C(=O)O[C@H]([C@H](C)C[C@@H]2CC[C@@H](OCCO)[C@H](OC)C2)CC(=O)[C@H](C)/C=C(\C)[C@@H](O)[C@@H](OC)C(=O)[C@H](C)C[C@H](C)/C=C/C=C/C=C/1C [everolimus]
[3]; ITT population
  ORR per IRC: 3%
[3]; Primary Endpoint Intent-to-Treat population
  Median duration of PFS (Kaplan-Meier): 3.8 months
[3]; in vivo
  Median duration of OS (Kaplan-Meier): 16.5 months
[3]; incidence in each arm
  Treatment discontinuations due to AEs: 10%

## C[C@]12C=CC(=O)C=C1CC[C@@H]1[C@@H]2C(=O)C[C@@]2(C)[C@H]1CC[C@]2(O)C(=O)CO [prednisone, reference compound]
[4]; at Week 12
  Proportion of subjects with a bone scan response (BSR) per IRC: 3%
[4]; exploratory endpoint
  Median PFS per investigator: 2.8 months
[4]; in vivo
  Median duration of BSR: 1.8 months
  Median duration of OS (Kaplan-Meier): 9.8 months

## CCN(CC)CCNC(=O)c1c(C)[nH]c(/C=C2\C(=O)Nc3ccc(F)cc32)c1C [sunitinib, reference compound]
[5]; 16 subjects in each arm
  Discontinued study treatment due to an AE: 21%
[5]; % of subjects
  Adverse events of ≥Grade 3 regardless of causality: 65%
[5]; in vivo
  ≥Grade 3 AE: PPE: 4%
  ≥Grade 3 AE: diarrhea: 11%
  ≥Grade 3 AE: fatigue: 17%
  ≥Grade 3 AE: hematological events: 21%
  ≥Grade 3 AE: hypertension: 21%

## atezolizumab: humanized immunoglobulin (Ig) G1 monoclonal antibody that targets programmed death receptor 1 ligand (PD-L1)
[6]; in vivo
  Adverse events leading to treatment discontinuation: 3.2%
  Treatment-emergent anti-therapeutic antibodies detected: 41.5%
  irAE: aspartate aminotransferase (AST) increased: 2%
  irAE: pneumonitis: 2%
[6]; overall population
  Median OS: 7.9 months
  Median PFS: 2.1 months
  Overall ORR by IRF: 14.8%
[6]; subjects with <5% PD-L1 expression
  ORR by IRF: 9.5%
[6]; subjects with ? 5% PD-L1 expression
  ORR by IRF: 26.0%
[6]; [10]
  Median OS: 11.9 months
[7]; overall population
  Duration of response (DOR): 21.7 months
  Overall ORR: 13%
[7]; overall population, vs chemotherapy
  OS hazard ratio: 0.85
[7]; [10]
  ORR: 23.0%
cisplatin-ineligible UC; all subjects irrespective of PD-L1 expression level
  Median OS: 15.9 months
cisplatin-ineligible UC; all subjects
  Overall ORR by IRF: 23%
cisplatin-ineligible UC; subjects with <5% PD-L1
  ORR by IRF: 21%
cisplatin-ineligible UC; [10]
  ORR by IRF: 28%
Advanced NSCLC; PD-L1 high group
  Median OS: 26.9 months
  Median PFS: 5.4 months
  Median duration of response: ~10 months
Advanced NSCLC; in vivo
  AE leading to discontinuation: Grade 3 or 4 pneumonitis: 1%
  AE leading to discontinuation: any grade pneumonia: 1%
  Adverse events leading to treatment discontinuation: 7%
  Treatment-related AEs of Grade 3 or 4: 9%
  Treatment-related Grade 5 event: no treatment-related Grade 5 event
Advanced NSCLC; unselected untreated NSCLC subjects
  OS: 23.5 months
[1]; ITT population
  Median OS: 13.8 months
  ORR: 14%
  OS hazard ratio: 0.73
[1]; [9]
  Median OS: 15.7 months
[1]; PD-L1 positive population
  OS hazard ratio: 0.74
[1]; in vivo
  AE of any grade: asthenia: 8%
  AE of any grade: decreased appetite: 9%
  AE of any grade: fatigue: 14%
  AE of any grade: nausea: 9%
  Immune-related AE: colitis: two
  Immune-related AE: hepatitis: two
  Immune-related AE: pneumonitis: four
  Median DOR: 16.3 months
  Subjects who discontinued treatment due to AE: 8%
  Treatment-related Grade 3 or 4 AEs: 15%
[8]; clear cell RCC
  Median OS: 28.9 months
  Overall median PFS: 5.6 months
[8]; in vivo
  Grade 4 or 5 treatment-related AEs: no Grade 4 or 5 treatment-related AEs
  Treatment-related Grade 3 events: 17%
